Data from patent US6599894B1, “Amidinobenzylamine derivatives and their use as thrombin inhibitors” (AstŕaZeneca AB, priority 1999, dated 2003).

Test: Test E: determination of thrombin time ex vivo (bioavailability of active inhibitor after prodrug administration)
Conditions: conscious rat, estimated from thrombin time or ecarin clotting time in plasma
Excerpt: Determination of Thrombin Time Ex Vivo
The inhibition of thrombin after oral or parenteral administration of the compounds of formula I, dissolved in ethanol:Solutol™:water (5:5:90), were examined in conscious rats which, one or two days prior to the experiment, were equipped with a catheter for blood sampling from the carotid artery. On the experimental day blood samples were withdrawn at fixed times after the administration of the compound into plastic tubes containing 1 part sodium citrate solution (0.13 mol per L) and 9 parts of blood. The tubes were centrifuged to obtain platelet poor plasma. The plasma was used for determination of thrombin time or ecarin clotting time (ECT) as described below.
The citrated rat plasma, 100 μL, was diluted with a saline solution, 0.9%, 100 μL, and plasma coagulation was started by the addition of human thrombin (T 6769, Sigma Chem Co, USA or Hematologic Technologies) in a buffer solution, pH 7.4, 100 μL, or ecarin (Pentapharm). The clotting time was measured in an automatic device (KC 10, Amelung, Germany).
[(AUCpd/dose)/(AUCactive,parenteral/dose]×100

Question: Which “oral and/or parenteral bioavailability as the corresponding active inhibitor (free amidine)” value does the source give for CON=C(N)c1ccc(CNC(=O)[C@@H]2CCN2C(=O)C(O)c2cc(Cl)cc(N(C)C)c2)cc1 (single isomer, unassigned) [Example 12, Ph(3-Cl,5-NMe2)-(R) or-(S)CH(OH)C(O)-Aze-Pab(OMe)] here?
Answer: The value was “exhibit oral and/or parenteral bioavailability in the rat”.

Question: Which “oral and/or parenteral bioavailability as the corresponding active inhibitor (free amidine)” value does the source give for CON=C(N)c1ccc(CNC(=O)C2CCN2C(=O)C(O)c2cc(Cl)cc(N(C)C(C)=O)c2)cc1.O=C(O)C(F)(F)F (single isomer, unassigned) [Example 18, Ph(3-Cl,5-NMeAc)-(R) or-(S)CH(OH)C(O)-Aze-Pab(OMe)×TFA] here?
Answer: The value was “exhibit oral and/or parenteral bioavailability in the rat”.

Question: Which “oral and/or parenteral bioavailability as the corresponding active inhibitor (free amidine)” value does the source give for CON=C(N)c1ccc(CNC(=O)C2CCN2C(=O)C(O)c2cccc(N3CCCC3=O)c2)cc1.O=C(O)C(F)(F)F (single isomer, unassigned) [Example 19, Ph(3-(1-Pyrrolidin-2-one))-(R) or-(S)CH(OH)C(O)-Aze-Pab(OMe)×TFA] here?
Answer: Its value is “exhibit oral and/or parenteral bioavailability in the rat”.

Question: For CON=C(N)c1ccc(CNC(=O)C2CCN2C(=O)C(O)c2cccc(N(C)C)c2)cc1 [Example 2, Ph(3-N(Me)2)-(R)- or-(S)CH(OH)—CO-Aze-Pab(OMe)], which “oral and/or parenteral bioavailability as the corresponding active inhibitor (free amidine)” value is on record?
Answer: The value was “exhibit oral and/or parenteral bioavailability in the rat”.

Question: For “Ph(3-Cl,5-NMe2)-(R) or -(S)CH(OH)C(O)-Aze-Pab(O-Et) [Example 13]”, which “oral and/or parenteral bioavailability as the corresponding active inhibitor (free amidine)” value is on record?
Answer: The value was “exhibit oral and/or parenteral bioavailability in the rat”.

Question: For “Ph(3-Cl,5-NMe2)-(R) or -(S)CH(OH)C(O)-Aze-Pab(O-i-Pr) [Example 15]”, which “oral and/or parenteral bioavailability as the corresponding active inhibitor (free amidine)” value is on record?
Answer: The value was “exhibit oral and/or parenteral bioavailability in the rat”.
